Each block holds one compound with its values, some of them ahead of it.
How the values were obtained:
[1] = target: T1, DNA ligase 1 (Homo sapiens, UniProt P18858); test: Inhibition of human DNA ligase 1 at 100 uM using nicked DNA as substrate by high-throughput fluorescence energy transfer-based DNA joining assay relative to control
[2] = tested on: HCT-116; test: Antiproliferative activity against human HCT116 cells relative to control; assay type: functional
[3] = target: T1, DNA ligase 1; test: Competitive inhibition of human DNA ligase 1 using nicked DNA as substrate by high-throughput fluorescence energy transfer-based DNA joining assay
[4] = target: T2, DNA ligase 3 (Homo sapiens, UniProt P49916); test: Competitive inhibition of human DNA ligase 3 using nicked DNA as substrate by high-throughput fluorescence energy transfer-based DNA joining assay
T2 sequence (P49916 whole entry): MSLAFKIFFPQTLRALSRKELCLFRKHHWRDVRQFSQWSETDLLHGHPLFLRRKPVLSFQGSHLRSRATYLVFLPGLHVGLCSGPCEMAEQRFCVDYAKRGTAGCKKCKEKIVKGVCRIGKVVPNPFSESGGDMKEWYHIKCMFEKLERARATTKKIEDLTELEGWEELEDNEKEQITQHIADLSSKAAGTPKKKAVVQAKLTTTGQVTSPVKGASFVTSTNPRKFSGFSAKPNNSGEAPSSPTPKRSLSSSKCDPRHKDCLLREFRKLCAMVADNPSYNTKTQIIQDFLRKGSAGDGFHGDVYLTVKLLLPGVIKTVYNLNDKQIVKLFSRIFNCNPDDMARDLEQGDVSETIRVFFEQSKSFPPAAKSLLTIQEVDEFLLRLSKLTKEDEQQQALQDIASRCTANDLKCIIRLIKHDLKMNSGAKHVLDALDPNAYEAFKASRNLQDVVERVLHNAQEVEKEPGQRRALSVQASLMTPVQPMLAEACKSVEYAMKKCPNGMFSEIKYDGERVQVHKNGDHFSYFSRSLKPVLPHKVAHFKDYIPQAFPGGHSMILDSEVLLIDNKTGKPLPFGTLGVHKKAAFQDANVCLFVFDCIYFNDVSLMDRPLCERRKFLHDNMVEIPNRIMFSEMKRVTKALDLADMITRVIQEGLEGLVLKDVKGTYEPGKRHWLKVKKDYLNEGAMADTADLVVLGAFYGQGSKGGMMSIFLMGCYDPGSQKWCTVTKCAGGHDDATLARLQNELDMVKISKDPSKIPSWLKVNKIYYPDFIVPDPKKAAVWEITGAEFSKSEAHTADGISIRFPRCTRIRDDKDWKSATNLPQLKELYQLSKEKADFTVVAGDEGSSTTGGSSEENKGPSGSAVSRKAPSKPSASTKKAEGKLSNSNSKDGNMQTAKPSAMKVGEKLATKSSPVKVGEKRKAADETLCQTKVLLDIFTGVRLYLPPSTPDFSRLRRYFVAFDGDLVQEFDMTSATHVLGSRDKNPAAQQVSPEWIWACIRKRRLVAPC

[5] = target: T1, DNA ligase 1; test: Inhibition of human DNA ligase 1 using 52-mer DNA/25-mer DNA/27-mer DNA as substrate
[6] = target: T3, DNA ligase 4 (Homo sapiens, UniProt P49917); test: Competitive inhibition of human DNA ligase 4 using nicked DNA as substrate by high-throughput fluorescence energy transfer-based DNA joining assay
T3 sequence (P49917 whole entry): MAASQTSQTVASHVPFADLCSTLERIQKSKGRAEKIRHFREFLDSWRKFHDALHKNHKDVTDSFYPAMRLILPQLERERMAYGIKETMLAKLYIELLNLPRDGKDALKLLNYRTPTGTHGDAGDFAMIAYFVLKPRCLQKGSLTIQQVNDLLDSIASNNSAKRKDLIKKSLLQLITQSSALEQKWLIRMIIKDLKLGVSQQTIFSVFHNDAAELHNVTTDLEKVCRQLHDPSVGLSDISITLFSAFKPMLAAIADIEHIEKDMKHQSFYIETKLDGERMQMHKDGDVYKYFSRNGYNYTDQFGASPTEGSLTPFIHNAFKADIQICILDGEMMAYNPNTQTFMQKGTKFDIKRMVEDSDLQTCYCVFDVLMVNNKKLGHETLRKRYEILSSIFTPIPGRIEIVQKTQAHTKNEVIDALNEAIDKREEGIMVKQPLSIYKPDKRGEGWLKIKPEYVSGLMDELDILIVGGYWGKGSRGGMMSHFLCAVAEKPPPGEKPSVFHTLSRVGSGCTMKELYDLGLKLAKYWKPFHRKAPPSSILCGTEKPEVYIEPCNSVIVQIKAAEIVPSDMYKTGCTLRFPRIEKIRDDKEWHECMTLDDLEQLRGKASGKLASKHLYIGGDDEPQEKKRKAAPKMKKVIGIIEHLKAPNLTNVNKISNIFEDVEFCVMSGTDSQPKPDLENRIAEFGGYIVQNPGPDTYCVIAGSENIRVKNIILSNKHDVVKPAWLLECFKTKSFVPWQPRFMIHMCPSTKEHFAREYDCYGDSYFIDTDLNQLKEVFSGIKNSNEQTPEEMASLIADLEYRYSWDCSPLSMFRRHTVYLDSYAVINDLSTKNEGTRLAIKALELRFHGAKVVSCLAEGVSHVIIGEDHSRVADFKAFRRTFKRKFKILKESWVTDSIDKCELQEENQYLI

[7] = tested on: MDA-MB-231; test: Antiproliferative activity against human MDA-MB-231 cells at 10 uM after 48 hrs by MTT assay relative to control; assay type: functional; settings: MDA-MB-231, 48 h
[8] = tested on: MDA-MB-231; test: Antiproliferative activity against human MDA-MB-231 cells after 48 hrs by MTT assay; assay type: functional, cell-based; settings: MDA-MB-231, 48 h
[9] = tested on: 4T1; test: Antiproliferative activity against mouse 4T1 cells after 48 hrs by MTT assay; assay type: functional, cell-based; settings: 4T1, 48 h
[10] = target: T1, DNA ligase 1; test: Inhibition of human DNA ligase 1 using nicked DNA as substrate after 30 mins relative to control
[11] = target: T1, DNA ligase 1; test: Inhibition of human DNA ligase 1 at 25 uM using nicked DNA as substrate after 30 mins relative to control
[12] = target: T1, DNA ligase 1; test: Inhibition of human DNA ligase 1 at 50 uM using 52-mer DNA/25-mer DNA/27-mer DNA as substrate by fluorescence assay relative to control
[13] = tested on: DLD-1; test: Antiproliferative activity against human DLD1 cells after 48 hrs by MTT assay; assay type: functional, cell-based; settings: DLD-1, 48 h
[14] = tested on: HepG2; test: Antiproliferative activity against human HepG2 cells after 48 hrs by MTT assay; assay type: functional, cell-based; settings: HepG2, 48 h
[15] = tested on: HEK293; test: Cytotoxicity against HEK293 cells after 48 hrs by MTT assay; assay type: cell-based; settings: Homo sapiens, HEK293, 48 h
[16] = Antiproliferative activity against human 46BR.1G1 cells after 48 hrs by MTT assay; assay type: functional, cell-based
[17] = target: T1, DNA ligase 1; test: Uncompetitive inhibition of human DNA ligase 1 using nicked DNA as substrate by high-throughput fluorescence energy transfer-based DNA joining assay
[18] = target: T1, DNA ligase 1; test: Inhibition of human DNA ligase 1

T1 sequence (P18858 whole entry): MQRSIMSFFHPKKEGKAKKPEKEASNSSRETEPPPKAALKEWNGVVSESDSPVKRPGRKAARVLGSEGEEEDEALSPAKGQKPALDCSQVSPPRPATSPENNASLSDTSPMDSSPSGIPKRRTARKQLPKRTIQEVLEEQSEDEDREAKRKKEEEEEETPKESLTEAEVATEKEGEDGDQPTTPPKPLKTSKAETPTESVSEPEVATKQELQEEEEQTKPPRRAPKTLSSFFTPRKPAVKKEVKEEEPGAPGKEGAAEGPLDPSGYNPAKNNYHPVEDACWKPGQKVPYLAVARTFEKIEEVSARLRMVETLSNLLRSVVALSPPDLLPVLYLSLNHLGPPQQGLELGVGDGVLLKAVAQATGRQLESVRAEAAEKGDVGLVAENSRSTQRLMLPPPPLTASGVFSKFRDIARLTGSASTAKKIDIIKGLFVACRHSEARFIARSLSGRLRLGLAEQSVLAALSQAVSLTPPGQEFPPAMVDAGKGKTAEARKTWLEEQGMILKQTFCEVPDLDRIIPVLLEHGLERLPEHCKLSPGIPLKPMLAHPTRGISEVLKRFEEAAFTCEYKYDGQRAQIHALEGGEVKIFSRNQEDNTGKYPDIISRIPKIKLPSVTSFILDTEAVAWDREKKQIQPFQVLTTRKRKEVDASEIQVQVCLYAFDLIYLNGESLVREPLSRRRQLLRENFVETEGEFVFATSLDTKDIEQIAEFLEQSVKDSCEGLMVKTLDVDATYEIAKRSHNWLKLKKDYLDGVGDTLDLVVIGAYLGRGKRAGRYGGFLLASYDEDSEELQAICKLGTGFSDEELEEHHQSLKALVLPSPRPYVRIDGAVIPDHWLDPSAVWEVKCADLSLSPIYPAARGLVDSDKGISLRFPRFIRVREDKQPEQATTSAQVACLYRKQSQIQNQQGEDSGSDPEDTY

inhibition [1]: 78.3%
IC50 [3]: 10 µM
IC50 [4]: 10 µM
Structure (SMILES): Cc1c(Br)cc(NCC(=O)N/N=C/c2cc([N+](=O)[O-])ccc2O)cc1Br
Activity [2]: 70%

Structure (SMILES): O=C1c2cc(Cl)ccc2NC(c2ccc(Br)cc2)c2cccn21 (stereo unspecified)
IC50 [5]: 23.1 µM

inhibition [1]: 68.8%
IC50 [3]: 5 µM
IC50 [4]: 9 µM
IC50 [6]: 5 µM
Structure (SMILES): Nc1nc(S)nc(O)c1/N=C/c1ccccc1
Activity [2]: 70%

IC50 [5]: 15.8 µM
Structure (SMILES): O=C1c2cc(Cl)ccc2NC(c2ccc(Cl)c(Cl)c2)c2cccn21 (stereo unspecified)

IC50 [8]: 12.8 µM
IC50 [9]: 11.6 µM
inhibition [10]: 99.3%
inhibition [11]: < 50%
Structure (SMILES): COc1cc(/C=C/c2cc(=O)oc3c2ccc2ccccc23)cc(OC)c1
inhibition at 10 µM [7]: > 50%

inhibition [12]: 93.1%
IC50 [13]: 6.78 µM
IC50 [14]: 6.93 µM
IC50 [8]: 7.02 µM
Structure (SMILES): O=[N+]([O-])c1ccc(N/N=C(/c2ccc(O)cc2)c2cccc3ccccc23)c([N+](=O)[O-])c1
IC50 [15]: 12.6 µM
IC50 [16]: > 25 µM

inhibition [1]: 59.8%
IC50 [17]: 12 µM
Structure (SMILES): O=c1[nH]ncc(N/N=C/c2ccc(O)c([N+](=O)[O-])c2)c1Cl
Activity [2]: 70%

IC50 [18]: 1 µM
Structure (SMILES): N[C@H](CO)Cc1cc(I)c(Oc2ccc(O)cc2)c(I)c1

— ChEMBL document CHEMBL4334494, “Recent advances in the targeting of human DNA ligase I as a potential new strategy for cancer treatment” (Eur J Med Chem, 2019)
